Data as given in a polymer gas permeability compilation.

SMILES | CH4 permeability [Barrer] | CO2 permeability [Barrer] | H2 permeability [Barrer] | N2 permeability [Barrer] | O2 permeability [Barrer]
*/C(C)=C(/*)[Si](C)(C)CCCCCCCC (repeat unit) | 13 | 100 | 47 | 19 | 23
*C(=C(*)c1ccc2c(c1)C1(CC1)c1ccccc1-2)c1ccc([Si](C)(C)C)cc1 (repeat unit) | 1500 | 4100 | 1900 | 540 | 1000
*C(=C(*)c1ccc2c(c1)C1(CC1)c1ccccc1-2)c1ccccc1 (repeat unit) | 810 | 3200 | 1400 | 400 | 660
*c1ccc(Oc2ccc(-c3ccc(-c4ccc(Oc5ccc(N6C(=O)c7ccc(C(c8ccc9c(c8)C(=O)N(*)C9=O)(C(F)(F)F)C(F)(F)F)cc7C6=O)cc5)c(C(F)(F)F)c4)s3)cc2C(F)(F)F)cc1 (repeat unit) | 1.68 | 45.3 | – | 1.78 | 11.7
*c1ccc(Oc2ccc(-c3cccc(-c4ccc(Oc5ccc(N6C(=O)c7ccc(C(c8ccc9c(c8)C(=O)N(*)C9=O)(C(F)(F)F)C(F)(F)F)cc7C6=O)cc5)c(C(F)(F)F)c4)n3)cc2C(F)(F)F)cc1 (repeat unit) | 1.95 | 51.9 | – | 1.91 | 12.2
*c1ccc(Oc2ccc(-n3c(=O)c4cc5sc6cc7c(=O)n(*)c(=O)c7cc6sc5cc4c3=O)cc2)cc1 (repeat unit) | 0.082 | 4 | 11 | 0.11 | 0.74
*c1ccc(Oc2ccc(C(*)(c3ccccc3)C(F)(F)F)cc2)cc1 (repeat unit) | 0.65 | 17 | 28 | 0.69 | 3.5
*c1ccc(Oc2ccc(C(C)(C)c3ccc(Oc4ccc(N5C(=O)c6ccc(-c7ccc8c(c7)C(=O)N(*)C8=O)cc6C5=O)cc4)cc3)cc2)cc1 (repeat unit) | 0.0846 | 2.8 | – | 0.0938 | 0.596
*c1ccc(Oc2ccc(C(c3ccc(Oc4ccc(-n5c(=O)c6cc7c(=O)n(*)c(=O)c7cc6c5=O)cc4C(F)(F)F)cc3)(C(F)(F)F)C(F)(F)F)cc2)c(C(F)(F)F)c1 (repeat unit) | 0.937 | 24.6 | 50.4 | 1.5 | 7.06
*c1ccc(Oc2ccc(C(c3ccc(Oc4ccc(N5C(=O)c6ccc(-c7ccc8c(c7)C(=O)N(*)C8=O)cc6C5=O)cc4C(F)(F)F)cc3)(C(F)(F)F)C(F)(F)F)cc2)c(C(F)(F)F)c1 (repeat unit) | 0.279 | 9.15 | 30.6 | 0.563 | 3.11
*c1ccc(Oc2ccc(C(c3ccc(Oc4ccc(N5C(=O)c6ccc(C(c7ccc8c(c7)C(=O)N(*)C8=O)(C(F)(F)F)C(F)(F)F)cc6C5=O)cc4)cc3)(C(F)(F)F)C(F)(F)F)cc2)cc1 (repeat unit) | 0.515 | 19 | 46.7 | 0.982 | 5.27
*c1ccc(Oc2ccc(C(c3ccc(Oc4ccc(N5C(=O)c6ccc(C(c7ccc8c(c7)C(=O)N(*)C8=O)(C(F)(F)F)C(F)(F)F)cc6C5=O)cc4C(F)(F)F)cc3)(C(F)(F)F)C(F)(F)F)cc2)c(C(F)(F)F)c1 (repeat unit) | 0.703 | 22.8 | 55.4 | 1.3 | 6.5
*c1ccc(Oc2ccc(C3(c4ccc(Oc5ccc(N6C(=O)c7ccc(C(c8ccc9c(c8)C(=O)N(*)C9=O)(C(F)(F)F)C(F)(F)F)cc7C6=O)c(C)c5)cc4)c4ccccc4-c4ccccc43)cc2)cc1C (repeat unit) | 0.34 | 11.7 | 47.3 | 0.73 | 3.62
*c1ccc(Oc2ccc(C3(c4ccc(Oc5ccc(N6C(=O)c7ccc(C(c8ccc9c(c8)C(=O)N(*)C9=O)(C(F)(F)F)C(F)(F)F)cc7C6=O)cc5)cc4)OC(=O)c4ccccc43)cc2)cc1 (repeat unit) | 0.455 | 16.5 | – | 0.965 | 4.83
*c1ccc(Oc2ccc(N3C(=O)c4cc(Oc5ccc(C)cc5)c(-c5cc6c(cc5Oc5ccc(C)cc5)C(=O)N(*)C6=O)cc4C3=O)cc2)cc1 (repeat unit) | 1.45 | 44 | – | 1.25 | 4.99
*c1ccc(Oc2ccc(N3C(=O)c4cc5c(cc4C3=O)S(=O)(=O)c3cc4c(cc3S5(=O)=O)C(=O)N(*)C4=O)cc2)cc1 (repeat unit) | 0.18 | 9.6 | 19 | 0.27 | 1.6
*c1ccc(Oc2ccc(N3C(=O)c4ccc(C(c5ccc6c(c5)C(=O)N(*)C6=O)(C(F)(F)F)C(F)(F)F)cc4C3=O)cc2)cc1 (repeat unit) | 0.407 | 20.6 | 44 | 0.797 | 4.21
*c1ccc(Oc2ccc(Oc3ccc(*)cc3)c3c2C2c4ccccc4C3c3ccccc32)cc1 (repeat unit) | 0.21 | 13.5 | – | 0.58 | 3.4
*c1ccc(Oc2ccc(S(=O)(=O)c3ccc(Oc4ccc(S(*)(=O)=O)cc4)cc3)cc2)cc1 (repeat unit) | 0.13 | 2.88 | 8.35 | 0.13 | 0.83
*c1ccc(Oc2ccc3ccccc3c2-c2c(Oc3ccc(N4C(=O)c5ccc(C(c6ccc7c(c6)C(=O)N(*)C7=O)(C(F)(F)F)C(F)(F)F)cc5C4=O)cc3C(F)(F)F)ccc3ccccc23)c(C(F)(F)F)c1 (repeat unit) | 0.41 | 25.9 | 36.8 | 0.78 | 4.89
*c1ccc(Oc2ccc3ccccc3c2-c2c(Oc3ccc(N4C(=O)c5ccc(C(c6ccc7c(c6)C(=O)N(*)C7=O)(C(F)(F)F)C(F)(F)F)cc5C4=O)cc3C)ccc3ccccc23)c(C)c1 (repeat unit) | 0.28 | 18.4 | 26.2 | 0.53 | 3.35
*c1ccc(Oc2cccc(-n3c(=O)c4cc5c(=O)n(*)c(=O)c5cc4c3=O)c2)cc1 (repeat unit) | 0.0258 | 1.15 | 5.92 | 0.0454 | 0.31
*c1ccc(S(=O)(=O)c2ccc(N3C(=O)c4ccc(-c5ccc6c(c5)C(=O)N(*)C6=O)cc4C3=O)cc2)cc1 (repeat unit) | 0.0625 | 2.16 | 11.3 | 0.0499 | 0.348
*c1ccc(Sc2ccc(N3C(=O)c4ccc(-c5ccc6c(c5)C(=O)N(*)C6=O)cc4C3=O)cc2)cc1 (repeat unit) | 0.0164 | 0.774 | – | 0.022 | –
